Patent US20040142979A1, “Heteroarylsulfonylmethyl hydroxamic acids and amides and their use as protease inhibitors” (priority 2002, published 2004)

How the values were obtained:
Human recombinant MMP-13 = molecular target: T1, Human recombinant MMP-13 (Homo sapiens, UniProt P45452); test: In vitro MMP inhibition analysis (fluorogenic peptide substrate), MMP-13; type: biochemical; details: human recombinant enzyme; 4 μM substrate (A); apparent Ki without substrate correction
T1 construct: made in house; host or cells: baculovirus / insect cells
Procedure: (§1) Several compounds and salts were analyzed in an in vitro assay to determine their ability to inhibit the MMP cleavage of peptide substrates. Inhibition constant (Ki) were calculated from the assayed compound-MMP interactions.
(§2) Human recombinant MMP-1, MMP-2, MMP-9, MMP-13, and MMP-14 were used in this assay. All enzymes were prepared in Assignee's laboratories following usual laboratory procedures. Protocols for the preparation and use of these enzymes are available in the scientific literature. See, e.g., Enzyme Nomenclature (Academic Press, San Diego, Calif., 1992) (and the citations therein). See also, Freije et al., J. Biol. Chem., 269(24), 16766-16773 (1994).
The MMP-13 was obtained as a proenzyme from a full-length cDNA clone using baculovirus, as described by V. A. Luckow, “Insect Cell Expression Technology,” Protein Engineering: Principles and Practice, pp. 183-218 (edited by J. L. Cleland et al., Wiley-Liss, Inc., 1996). The expressed proenzyme was first purified over a heparin agarose column, and then over a chelating zinc chloride column. The proenzyme was then activated by APMA for use in the assay. […] See also, O'Reilly et al, Baculovirus Expression Vectors: A Laboratory Manual (W. H. Freeman and Co., New York, N.Y., 1992). See also, King et al., The Baculovirus Expression System: A Laboratory Guide (Chapman & Hall, London, England, 1992).
(§3) All MMPs were activated using 4-aminophenylmercuric acetate (“APMA”, Sigma Chemical, St. Louis, Mo.) or trypsin. MMP-9 also was activated using human recombinant MMP-3 (purified in Assignee's laboratory following standard cloning and purification techniques).
(§4) The following fluorogenic, methoxycoumarin-containing polypeptide substrate (A) was used in the MMP inhibition assays:
(§5) MCA-ArgProLeuGlyLeuDpaAlaArgGluArgNH2 (A)
(§6) “MCA” is 7-methoxycoumarin-4-yl acetyl. Substrate (A) was prepared Assignee's laboratory. In the absence of MMP inhibitory activity, the substrate is cleaved at the Gly-Leu peptide bond. This cleavage separates the highly fluorogenic peptide from the 2,4-dinitrophenyl quencher, thus resulting in increase of fluorescent intensity.
(§7) The stock solutions of the assayed compounds and salts were prepared in 1% dimethyl sulfoxide (DMSO). These stock solutions were diluted in Buffer A (100 mM Tris-HCl, 100 mM NaCl, 10 mM CaCl2, 0.05% polyoxyethylene 23 lauryl ether, pH 7.5) to obtain solutions with different compound concentrations, i.e., assay solutions with different concentrations of the assayed MMP inhibitory compound. The experiment controls contained the same amount of Buffer A/DMSO as the assayed sample, but contained none of the tested compound or salt.
The assays from which the Ki determinations were made were performed as follows. The assayed compound samples were incubated in separate wells of untreated white polystyrene plates (Nunc Nalgene International, Rochester, N.Y.), and analyzed on a Tecan SpectraFlour Plus plate reader. The excitation wavelength was 330 nm, and the emission wavelength -420 nm. All samples (assayed compounds and controls) were incubated in separate plate wells at room temperature for 1 hr in the presence of 4 μM of MMP substrate (A). In the absence of MMP inhibitory activity, substrate (A) was cleaved at the Gly-Leu bond resulting in an increase of relative fluorescence. Inhibition was observed as a reduced rate of this increase in relative fluorescence. […] This protocol is a modification of method by Knight et al., FEBS Lett., 296(3), 263-266 (1992). Apparent inhibitory constants were determined by non-linear regression of reaction velocity as a function of inhibitor and enzyme concentration using Morrison's equation, as described by Kuzmic, P., et al., Anal. Biochem., 286(1):45-50 (2000). […] Since the substrate concentration was chosen to be at or below the Km, the apparent Ki's from this analysis were reported as Ki's without correction for the influence of substrate.
All Ki values in Table 3 are given in nM units.

Human recombinant MMP-14 = molecular target: T2, Human recombinant MMP-14 (Homo sapiens, UniProt P50281); test: In vitro MMP inhibition analysis (fluorogenic peptide substrate), MMP-14; type: biochemical; details: human recombinant catalytic domain; 4 μM substrate (A); apparent Ki without substrate correction
T2 construct: The catalytic domain enzyme was expressed in E. Coli inclusion bodies; made in house
Procedure: as §1, §2
The MMP-14 full length cDNA was provided by Dr. Gregory Goldberg of Washington University (St. Louis, Mo.). The catalytic domain enzyme was expressed in E. Coli inclusion bodies, solubilized in urea, purified on a preparative […] reverse phase HPLC column, and then refolded in the presence of zinc acetate and purified for use.
as §3, §4, §5, §6, §7
The assays from which the Ki determinations were made were performed as follows. The assayed compound samples were incubated in separate wells of untreated white polystyrene plates (Nunc Nalgene International, Rochester, N.Y.), and analyzed on a Tecan SpectraFlour Plus plate reader. The excitation wavelength was 330 nm, and the emission wavelength -420 nm. All samples (assayed compounds and controls) were incubated in separate plate wells at room temperature for 1 hr in the presence of 4 μM of MMP substrate (A). In the absence of MMP inhibitory activity, substrate (A) was cleaved at the Gly-Leu bond resulting in an increase of relative fluorescence. Inhibition was observed as a reduced rate of this increase in relative fluorescence. […] This protocol is a modification of method by Knight et al., FEBS Lett., 296(3), 263-266 (1992). Apparent inhibitory constants were determined by non-linear regression of reaction velocity as a function of inhibitor and enzyme concentration using Morrison's equation, as described by Kuzmic, P., et al., Anal. Biochem., 286(1):45-50 (2000). Modifications were made in the non-linear regression method to allow a common control reaction rate and effective enzyme concentration to be shared between all dose-response relationships on a given assay plate. Since the substrate concentration was chosen to be at or below the Km, the apparent Ki's from this analysis were reported as Ki's without correction for the influence of substrate.
The above protocols were used to determine MMP inhibition Ki constants for the compounds in Examples 1, 2, and 4-42 above. All Ki values in Table 3 are given in nM units.

## CCCCOc1ccc(-c2ccc(S(=O)(=O)C3(C(=O)NO)CCOCC3)s2)cc1 [Example 43]
Human recombinant MMP-13
  Ki: 0.127 nM
Human recombinant MMP-14
  Ki: 466 nM

## O=C(NO)C1(S(=O)(=O)c2ccc(-c3ccc(OC(F)(F)C(F)F)cc3)s2)CCOCC1 [Example 44]
Human recombinant MMP-13
  Ki: 0.134 nM
Human recombinant MMP-14
  Ki: 429 nM

## CCCCCc1ccc(-c2ccc(S(=O)(=O)C3(C(=O)NO)CCOCC3)cn2)cc1 [Example 45]
Human recombinant MMP-13
  Ki: 1.19 nM
Human recombinant MMP-14
  Ki: 3490 nM

## O=C(NO)C1(S(=O)(=O)c2ccc(-c3ccc(OCC(F)(F)F)cc3)nc2)CCOCC1 [Example 46]
Human recombinant MMP-13
  Ki: 0.169 nM
Human recombinant MMP-14
  Ki: 852 nM

## O=C(NO)C1(S(=O)(=O)c2ccc(-c3ccc(OC(F)(F)C(F)F)cc3)nc2)CCOCC1 [Example 47]
Human recombinant MMP-13
  Ki: 0.306 nM
Human recombinant MMP-14
  Ki: 2130 nM

## O=C(NO)C1(S(=O)(=O)c2ccc(-c3ccc(OC(F)(F)C(F)F)cc3)nc2)CCOCC1 [Example 48]
Human recombinant MMP-13
  Ki: 0.192 nM
Human recombinant MMP-14
  Ki: 1850 nM

## O=C(NO)C1(S(=O)(=O)c2ccc(-c3ccc(CCC(F)(F)C(F)(F)F)cn3)s2)CCOCC1 [Example 49]
Human recombinant MMP-13
  Ki: 0.822 nM
Human recombinant MMP-14
  Ki: 9250 nM

## O=C(NO)C1(S(=O)(=O)c2ccc(-c3ccc(C(F)(F)F)cn3)s2)CCOCC1 [Example 50]
Human recombinant MMP-13
  Ki: 10.3 nM
Human recombinant MMP-14
  Ki: 2820 nM

## O=C(NO)C1(S(=O)(=O)c2ccc3nc(-c4ccc(OC(F)(F)F)cc4)sc3c2)CCOCC1 [Example 51]
Human recombinant MMP-13
  Ki: 0.275 nM
Human recombinant MMP-14
  Ki: 3330 nM

## CCCCc1ccc(C(=O)C2CCN(c3nc4ccc(S(=O)(=O)C5(C(=O)NO)CCOCC5)cc4s3)CC2)s1 [Example 52]
Human recombinant MMP-13
  Ki: 1.58 nM
Human recombinant MMP-14
  Ki: > 10000 nM

## CCCc1ccc(-c2nc3ccc(S(=O)(=O)C4(C(=O)NO)CCOCC4)cc3s2)cc1 [Example 53]
Human recombinant MMP-13
  Ki: 0.314 nM
Human recombinant MMP-14
  Ki: > 10000 nM

## CC(C)Cc1ncc(-c2nc3ccc(S(=O)(=O)C4(C(=O)NO)CCOCC4)cc3s2)s1 [Example 54]
Human recombinant MMP-13
  Ki: 2.73 nM
Human recombinant MMP-14
  Ki: > 10000 nM

## O=C(NO)C1(S(=O)(=O)c2ccc3nc(-c4cccc(C(F)(F)F)c4)sc3c2)CCOCC1 [Example 55]
Human recombinant MMP-13
  Ki: 177 nM
Human recombinant MMP-14
  Ki: > 10000 nM

## O=C(NO)C1(S(=O)(=O)c2ccc3nc(N4CCC(Oc5ccc(OC(F)(F)F)cc5)CC4)sc3c2)CCOCC1 [Example 56]
Human recombinant MMP-13
  Ki: 3.43 nM
Human recombinant MMP-14
  Ki: 798 nM

## O=C(NO)C1(S(=O)(=O)c2ccc3nc(-c4ccc(C(F)(F)F)cc4)sc3c2)CCOCC1 [Example 57]
Human recombinant MMP-13
  Ki: 0.384 nM
Human recombinant MMP-14
  Ki: 2160 nM

## CCc1ccc(-c2nc3ccc(S(=O)(=O)C4(C(=O)NO)CCOCC4)cc3s2)cc1 [Example 58]
Human recombinant MMP-13
  Ki: 0.336 nM
Human recombinant MMP-14
  Ki: 2500 nM

## O=C(NO)C1(S(=O)(=O)c2ccc3nc(-c4ccc(Cl)s4)sc3c2)CCOCC1 [Example 59]
Human recombinant MMP-13
  Ki: 0.588 nM
Human recombinant MMP-14
  Ki: 927 nM

## O=C(NO)C1(S(=O)(=O)c2ccc3nc(-c4ccc(F)c(F)c4)sc3c2)CCOCC1 [Example 60]
Human recombinant MMP-13
  Ki: 1.54 nM
Human recombinant MMP-14
  Ki: 707 nM

## O=C(NO)C1(S(=O)(=O)c2ccc3nc(-c4ccc(F)cc4F)sc3c2)CCOCC1 [Example 61]
Human recombinant MMP-13
  Ki: 2.94 nM
Human recombinant MMP-14
  Ki: > 10000 nM

## O=C(NO)C1(S(=O)(=O)c2ccc3nc(-c4ccsc4)sc3c2)CCOCC1 [Example 62]
Human recombinant MMP-13
  Ki: 1.36 nM
Human recombinant MMP-14
  Ki: 355 nM

## COCCN1CCC(C(=O)NO)(S(=O)(=O)c2ccc3nc(-c4ccc(OC(F)(F)F)cc4)sc3c2)CC1 [Example 63]
Human recombinant MMP-13
  Ki: 0.309 nM
Human recombinant MMP-14
  Ki: 4230 nM

## O=C(NO)C1(S(=O)(=O)c2ccc3nc(-n4cnc(-c5ccccc5)c4)sc3c2)CCOCC1 [Example 64]
Human recombinant MMP-13
  Ki: 22.1 nM
Human recombinant MMP-14
  Ki: 3830 nM

## O=C(NO)C1(S(=O)(=O)c2ccc3nc(-c4ccc5c(c4)OCO5)sc3c2)CCOCC1 [Example 65]
Human recombinant MMP-13
  Ki: 1.05 nM
Human recombinant MMP-14
  Ki: 686 nM

## CCOc1ccc(-c2nc3ccc(S(=O)(=O)C4(C(=O)NO)CCOCC4)cc3s2)cc1 [Example 66]
Human recombinant MMP-13
  Ki: 0.082 nM
Human recombinant MMP-14
  Ki: > 312 nM

## O=C(NO)C1(S(=O)(=O)c2ccc3nc(-c4ccc(SC(F)(F)F)cc4)sc3c2)CCOCC1 [Example 67]
Human recombinant MMP-13
  Ki: 0.293 nM
Human recombinant MMP-14
  Ki: 3600 nM

## O=C(NO)C1(S(=O)(=O)c2ccc(-c3ccc(CCC(F)(F)F)cc3)nc2)CCOCC1 [Example 68]
Human recombinant MMP-13
  Ki: 0.721 nM
Human recombinant MMP-14
  Ki: 2450 nM
